Tests used:
[1] = test system: APOE*3Leiden.CETP double transgenic mice; assay: Hepatic cholesterol content (liver lipids) in diet induced NAFLD/NASH mouse model; format: in vivo; conditions: for Effect on hepatic cholesterol ester vs control: Compound N p<0.001, Reference A p<0.05; for Liver lipids, Cholesterol ester (CE in FIG. 1), AVG ± SD / Liver lipids, Free cholesterol (FC in FIG. 1), AVG ± SD: ApoE*3L-CETP mice, high fat diet, 0.25% cholesterol w/w, daily gavage
Experimental: (§1) The APOE*3Leiden.CETP double transgenic mouse is expressing a variant of the human apolipoprotein E3 (APOE3), the APOE*3Leiden, in addition to the human apolipoprotein C1 (APOC1) and CETP. […] By increasing the cholesterol content of the diet in this model, all the characteristics of human NASH develop.
(§2) Studies were performed in APOE*3Leiden.CETP mice placed on a high fat diet (24% fat w/w) with varying cholesterol content (0.25-1% cholesterol w/w). In one study (using 1% cholesterol w/w), after a 3 weeks run-in period 17 (20%) low-responder mice were removed from the study and the remaining 65 mice were sub-divided into groups of 12 mice each (+5 in the control group), matched for plasma cholesterol, triglycerides, blood glucose, body weight and age (t=0) and treatment was started. The mice received a daily gavage between 07 hr00 and 10 hr00 with either Compound N, Reference A or control (corn oil). After 4, 8, 12, 16 and 20 weeks of treatment blood samples were taken after a 5 hour fasting period (also 5 hours after compound or vehicle administration). Plasma cholesterol and triglycerides were measured. After 14 weeks of treatment 5 representative mice from the control group were sacrificed in order to assess the NASH development and to determine the termination of the study. After 20 weeks of treatment mice were sacrificed by CO2 asphyxiation, heparin heart blood was sampled and tissues were collected. Hepatic steatosis, inflammation and collagen content were analyzed.
(§3) A further study was performed in APOE*3Leiden.CETP mice with a 4-week active treatment arm in mice placed on a high fat diet (24% fat and 0.25% cholesterol diet, both w/w) to collect additional metabolic data.
A mild decrease in cholesterol ester was also observed with Reference A (p<0.05). A 43% reduction in total hepatic cholesterol (statistics not performed).

[2] = test system: APOE*3Leiden.CETP double transgenic mice; assay: Hepatic inflammation (number of foci, inflammation score) in diet induced NAFLD/NASH mouse model; format: in vivo; conditions: for Inflammation Score (0-3), Mean ± SD / Inflammation, Number of foci, Mean ± SD: ApoE*3L-CETP mice, high fat/cholesterol diet, liver after 20 weeks of treatment
Experimental: as §1, §2

[3] = test system: APOE*3Leiden.CETP double transgenic mice; assay: Hepatic steatosis (macrovesicular and microvesicular) in diet induced NAFLD/NASH mouse model; format: in vivo; conditions: for Steatosis as % of the liver, Macrovesicular, Mean ± SD / Steatosis as % of the liver, Microvesicular, Mean ± SD: ApoE*3L-CETP mice, high fat/cholesterol diet, liver after 20 weeks of treatment; for Effect on macrovesicular steatosis vs control: Compound N p<0.001 vs. control
Experimental: as §1, §2

[4] = test system: APOE*3Leiden.CETP double transgenic mice; assay: Fecal bile acid content in diet induced NAFLD/NASH mouse model; format: in vivo; conditions: for Total bile acids (fecal), AVG ± SD: ApoE*3L-CETP double transgenic mice, feces
Experimental: as §1, §2, §3

[5] = test system: APOE*3Leiden.CETP double transgenic mice; assay: Hepatic fibrosis (collagen content) in diet induced NAFLD/NASH mouse model; format: in vivo; conditions: for Fibrosis, Hydroxyprolin/Prolin, Mean ± SD: ApoE*3L-CETP double transgenic mice, hepatic collagen content, after 20 weeks of treatment
Experimental: as §1, §2

[6] = test system: APOE*3Leiden.CETP double transgenic mice; assay: Total plasma cholesterol in diet induced NAFLD/NASH mouse model; format: in vivo
Experimental: as §1, §2, §3
Plasma HDL cholesterol values were adoubled (p<0.001, data not shown), underlying the fact that the reduction in plasma cholesterol was specific to the atherogenic apoB particle associated cholesterol fraction.

[7] = test system: APOE*3Leiden.CETP double transgenic mice; conditions: earlier study; cited from earlier work

Structure (SMILES): CC/C=C\C/C=C\C/C=C\C/C=C\C/C=C\CCCCSC(CC)(CC)C(=O)O [Compound N, 2-ethyl-2-((5Z,8Z,11Z,14Z,17Z)-icosa-5,8,11,14,17-pentaenylthio)butanoic Acid]
- Effect on hepatic cholesterol ester vs control ([1]; 0.25% cholesterol diet w/w): significant decrease
- Reduction in total hepatic cholesterol ([1]; 0.25% cholesterol diet w/w, statistics not performed): 43%
- Liver lipids, Cholesterol ester (CE in FIG. 1), AVG ± SD [1]: 10.6 ± 2.1 μg lipid/mg liver protein
- Liver lipids, Free cholesterol (FC in FIG. 1), AVG ± SD [1]: 9.8 ± 1.2 μg lipid/mg liver protein
- Inflammation Score (0-3), Mean ± SD [2]: 0.6 ± 0.8
- Inflammation, Number of foci, Mean ± SD [2]: 0.6 ± 0.6
- Effect on total inflammation score ([2]; vs control): significant reduction
- Reduction in the number of inflammatory foci ([2]; vs control, p<0.001): approximately 85%
- Steatosis as % of the liver, Macrovesicular, Mean ± SD [3]: 1.1 ± 1.0%
- Steatosis as % of the liver, Microvesicular, Mean ± SD [3]: 57.9 ± 25.4%
- Effect on macrovesicular steatosis vs control [3]: abolished macrovesicular steatosis
- Total bile acids (fecal), AVG ± SD [4]: 3.2 ± 0.6 μmol/100 gr mouse/day
- Reduction in fecal bile acid excretion ([4]; vs control, p=0.006): 50%
- Fibrosis, Hydroxyprolin/Prolin, Mean ± SD [5]: 0.027 ± 0.007
- Reduction in hepatic collagen content ([5]; compared to control animals, p<0.005): 30%
- Reduction in total plasma cholesterol ([6]; after 4 weeks versus control, p<0.001): 52%
- Plasma HDL cholesterol values ([6]; p<0.001, data not shown): doubled
- Total plasma cholesterol, t = 0, AVG ± SD ([6]; t = 0 weeks (baseline, start of treatment)): 6.4 ± 1.1 mM
- Total plasma cholesterol, t = 2, AVG ± SD ([6]; t = 2 weeks of treatment): 4.2 ± 0.7 mM
- Total plasma cholesterol, t = 4, AVG ± SD ([6]; t = 4 weeks of treatment): 4.7 ± 1.3 mM
- Effect on plasma cholesterol, previously shown [7]: significantly decrease plasma cholesterol

Structure (SMILES): CC/C=C\C/C=C\C/C=C\C/C=C\C/C=C\CCCCOC(CC)C(=O)O (stereo not drawn) [Reference A, 2-((5Z,8Z,11Z,14Z,17Z)-icosa-5,8,11,14,17-pentaenyloxy)butanoic acid, reference compound]
- Effect on hepatic cholesterol ester vs control ([1]; 0.25% cholesterol diet w/w): mild decrease
- Liver lipids, Cholesterol ester (CE in FIG. 1), AVG ± SD [1]: 17.0 ± 3.7 μg lipid/mg liver protein
- Liver lipids, Free cholesterol (FC in FIG. 1), AVG ± SD [1]: 9.5 ± 1.3 μg lipid/mg liver protein
- Inflammation Score (0-3), Mean ± SD [2]: 1.9 ± 1.2
- Inflammation, Number of foci, Mean ± SD [2]: 1.9 ± 1.3
- Effect on inflammatory foci vs control ([2]; Reference A p<0.01): milder reduction
- Steatosis as % of the liver, Macrovesicular, Mean ± SD [3]: 21.2 ± 15.0%
- Steatosis as % of the liver, Microvesicular, Mean ± SD [3]: 34.6 ± 11.8%
- Effect on macrovesicular steatosis vs control [3]: No significant effect
- Total bile acids (fecal), AVG ± SD [4]: 4.0 ± 1.2 μmol/100 gr mouse/day
- Effect on fecal bile acid excretion vs control ([4]; p<0.05 vs. control): milder yet significant decrease
- Effect on plasma cholesterol, previously shown [7]: significantly decrease plasma cholesterol

Structure (SMILES): CN(CCOc1ccc(CC2SC(=O)NC2=O)cc1)c1ccccn1 (stereo not drawn) [Rosiglitazone]
- Inflammation Score (0-3), Mean ± SD [2]: 1.7 ± 1.2
- Inflammation, Number of foci, Mean ± SD [2]: 1.6 ± 1.6
- Steatosis as % of the liver, Macrovesicular, Mean ± SD [3]: 14.3 ± 20.2%
- Steatosis as % of the liver, Microvesicular, Mean ± SD [3]: 52.5 ± 18.4%
- Effect on macrovesicular steatosis vs control [3]: No significant effect
- Fibrosis, Hydroxyprolin/Prolin, Mean ± SD [5]: 0.036 ± 0.007
